Assay results reported in US10821177B2, “Induction of differential stress resistance and uses thereof” (University of Southern California, priority 2007, dated 2020).
Read-outs that look alike come from different tables or passages of the source. Marks after values point to notes of the source that are not given here.

What was measured:
NXS2 neuroblastoma cells [1] = details: for No toxicity deaths: deaths / mice
Text: (§1) The murine NX3IT28 cell line was generated by hybridization of the GD2-negative C1300 murine neuroblastoma cell line (A/J background) with murine dorsal root ganglional cells from C57BL16J mice, as previously described. The NXS2 sublime was then created by the selection of NX3IT28 cells with high GD2 expression.
Six-to-seven-week-old female NJ mice, weighing 15-18 g were purchased from Harlan Laboratories (Harlan Italy, S. Pietro al Natisone, Italy) and housed in sterile enclosures under specific virus and antigen-free conditions. All procedures involving mice and their care were reviewed and approved by licensing and ethical committee of the National Cancer Research Institute, Genoa, Italy, and by the Italian Ministry of Health.
(§2) N J mice were pretreated with 1 mg/kg/day doses of human octreotide (OCT, ProSpec-Tany TechnoGene, Rehovot, Israel) for 4 days given slowly through the tail vein in a volume of 100 pl and then injected intravenously with murine neuroblastoma NXS2 cell line (200,000/mouse), as previously described. After tumor cell inoculum, some groups of animals were starved for 48 hours and then i.v. treated with 80 mg/kg of Etoposide Teva (Teva Pharma B.V., Mijdrecht, Holland), administered as a single dose. Additional daily doses of OCT were administered for 4 days after chemotherapy. Control groups of mice without diet starvation and OCT treatment were also investigated.
(§3) To determine toxicity and efficacy, mice were monitored routinely for weight loss and general behavior. […] Survival time was used as the main criterion for determining the efficacy of each treatment.
The statistical significance of differential survival between experimental groups of animals was determined by Kaplan-Meier curves and log-rank […] test by the use of StatDirect statistical software (Camcode, Ashwell, UK).
as §1, with “C57BL/6J” for “C57BL16J”, “subline” for “sublime”
as §2, with “Six-to-seven-week-old female A/J mice, weighing 15-18 g were purchased from Harlan Laboratories (Harlan Italy, S. Pietro al Natisone, Italy) and housed in sterile enclosures under specific virus and antigen-free conditions. All procedures involving mice and their care were reviewed and approved by licensing and ethical committee of the National cancer Research Institute, Genoa, Italy, and by the Italian Ministry of Health. A/J” for “N J”, “μl” for “pl”, “injection,” for “inoculum,”
The statistical significance of differential survival between experimental groups of animals was determined by Kaplan-Meier curves and log-rank (Peto) test by the use of StatDirect statistical software (CamCode, Ashwell, UK). In some experiments, four-week-old female CD1 mice (Harlan), weighing 18-20 g were used to evaluate stress resistance after 60-hour diet starvation. These animals, i.v. injected with 110 mg/kg etoposide, were monitored routinely for weight loss and general behavior. Survival time was used as the main criterion for determining the differential stress resistance after short-term starvation.

LID mice [2] = experiment: High-dose etoposide in LID mice; format: in vivo, mouse; details: 100 mg/kg etoposide i.v.; difference in survival not significant
Protocol: FIG. 21. Resistance to high-dose chemotherapy in LID mice. All mice received an i.v. injection of 100 mg/kg etoposide and were single caged throughout the experiment. The toxicity, evaluated by (A) percent survival and (B) daily weight measurements, are shown. p-value was calculated by log rank test (p=0.06, n=10).

A/J mice [3] = experiment: Resistance to high-dose etoposide (80 mg/kg) in A/J mice after STS and/or octreotide
Protocol: as §2, §3
as §2, with “Six-to-seven-week-old female A/J mice, weighing 15-18 g were purchased from Harlan Laboratories (Harlan Italy, S. Pietro al Natisone, Italy) and housed in sterile enclosures under specific virus and antigen-free conditions. All procedures involving mice and their care were reviewed and approved by licensing and ethical committee of the National cancer Research Institute, Genoa, Italy, and by the Italian Ministry of Health. A/J” for “N J”, “μl” for “pl”, “injection,” for “inoculum,”

athymic (Nude-nu) mice = experiment: Resistance to high-dose etoposide (100 mg/kg) in athymic (Nude-nu) mice; format: in vivo, mouse; details: 100 mg/kg etoposide
Protocol: In other experiments, four-week old female athymic (Nude-nu) mice (Harlan), weighing 20-22 gr were used to evaluate stress resistance after a 48-hour starvation. These animals were i.v.-injected with 100 mg/Kg etoposide and then monitored routinely for weight loss and general behavior.

CD1 mice = experiment: Resistance to high-dose etoposide (110 mg/kg) in CD1 mice after 60-hour starvation; format: in vivo, mouse; details: 110 mg/Kg etoposide i.v., with or without 60-hour STS
Protocol: In some experiments, four-week-old female CD1 mice (Harlan), weighing 18-20 g were used to evaluate stress resistance after 60 hours of starvation. These animals, i.v. injected with 110 mg/kg etoposide, were monitored routinely for weight loss and general behavior. Survival time was used as the main criterion for determining the differential stress resistance after short-term starvation.

[4] = humans; cited from earlier work
mice = experiment: Octreotide protection of mice against paraquat; format: in vivo, mouse; details: octreotide treatment
NXS2 neuroblastoma cells [5] = experiment: Effect of octreotide on etoposide cytotoxicity in NXS2 cells, trypan blue; format: cell-based, mouse; details: 10 or 50 micromolar octreotide, etoposide 1-3 μM, 72 hours
Protocol: FIG. 8. Survival of neuroblastoma (NXS2)-bearing mice. All mice were inoculated i.v. with 200,000 NXS2 cells/mouse on day 4. The different groups were treated as follows: A) Gr. 1: Control (16 mice)=i.v. inoculation with NSX2 tumor cells on day 4. Gr. 2: Oct (8 mice)=pre-treatment with 1 mg/kg/day octreotide for 4 days before and after tumor injection on day 4. Gr. 3: Oct/STS/Oct (8 mice)=pre-treatment with 1 mg/kg/day Oct before tumor cell injection on day 4+48-hour STS on days 4-6+post-treatment with 1 mg/kg/day Oct on days 8-11. Gr. […] Viability was determined by counting the cells with a contrast phase microscope. The proportion of dead (or living) cells was calculated by dividing the number of dead (or living) cells by the total number of cells per field. […]
NXS2 neuroblastoma cells treated with different concentrations of etoposide (1-3 μM) in presence or absence of octreotide (10 and 50 μM) for 72 hours were harvested by scraping, washed with complete medium, and incubated with trypan blue (0.04%; Sigma; St. Louis, Mo.) for 1 minute at 37° C. The cells were then placed in a Burker chamber (Tecnovetro, Monza Milan, Italy) and counted by viewing with a contrast phase microscope (Olympus Optical Co LTD, Tokyo, Japan). […] The proportion of dead (or living) cells was calculated by dividing the number of dead (or living) cells by the total number of cells per field.

LID mice [6] = experiment: Multiple treatments with doxorubicin in LID mice; format: in vivo, mouse; details: doxorubicin 20 mg/kg then 28 mg/kg 22 days later
Protocol: FIG. 22. Resistance to multiple treatments with doxorubicin. Doxorubicin was intravenously administered at 20 mg/kg on Day 0 and 28 mg/kg on Day 22 (n=5). The toxicity, evaluated by (A) percent survival and (B) daily weight measurements, are shown. p-value was calculated by log rank test (p<0.05).

A/J mice [7] = experiment: High-dose doxorubicin toxicity in A/J mice with or without 48-hour STS; format: in vivo, mouse
Protocol: FIG. 20. A/J mice, weighing 18-20 g, were starved for 48 hours (STS), and followed by a single intravenous injection of high dose doxorubicin (16 mg/kg). The toxicity, evaluated by (A) percent survival and (B) daily weight measurements, are shown.

[8] = Table 1, mice with metastases / mice
[9] = Table 1, mice with metastases / mice, 200,000 NXS2 cells i.v.
[10] = Table 2, all mice followed until death, necropsy
[11] = Table 2, early etoposide toxicity deaths not considered
[12] = Table 2, followed until death, necropsy

Row | Compound | Survival Range (NXS2 neuroblastoma cells [1]; Table 1) | Hemorrhagic ascites (NXS2 neuroblastoma cells [1]; Table 1, affected mice / mice) | Adrenal glaud (metastases) (NXS2 neuroblastoma cells [1]; [8]) | Kidneys (metastases) (NXS2 neuroblastoma cells [1]; [8]) | Ovaries (metastases) (NXS2 neuroblastoma cells [1]; [8]) | Liver (metastases) (NXS2 neuroblastoma cells [1]; [9]) | Survival Range (NXS2 neuroblastoma cells [1]; Table 2) | Liver (metastases) (NXS2 neuroblastoma cells [1]; [10]) | No toxicity deaths (NXS2 neuroblastoma cells [1]; Table 2) | Median survival (NXS2 neuroblastoma cells [1]; [11]) | Adrenal gland (metastases) (NXS2 neuroblastoma cells [1]; [12]) | Hemorrhagic ascites (NXS2 neuroblastoma cells [1]; [12]) | Kidneys (metastases) (NXS2 neuroblastoma cells [1]; [12]) | Ovaries (metastases) (NXS2 neuroblastoma cells [1]; [12]) | other results
1 | COc1cc([C@@H]2c3cc4c(cc3[C@@H](O[C@@H]3O[C@@H]5CO[C@@H](C)O[C@H]5[C@H](O)[C@H]3O)[C@H]3COC(=O)[C@H]23)OCO4)cc(OC)c1O [Eto, etoposide] | 87 to 90 days | 1/3* | 0/3* | 1/3* | 1/3* | 1/3* | 87 to 140 days | 3/3 | 3/6 | 130 days | 0/3 | 3/3 | 3/3 | 0/3 | day until which mice did not develop tumors (NXS2 neuroblastoma cells [1]; NXS2-injected mice without STS): 80 days; Median survival (days) (NXS2 neuroblastoma cells [1]; Table 1): 90* days; resistance of LID mice compared to controls (LID mice [2]): less resistant; mice killed by etoposide (A/J mice [3]; 80 mg/Kg etoposide i.v., A/J mice): 43%; weight lost in the four days after etoposide treatment (A/J mice [3]; 80 mg/Kg etoposide, control mice): approximately 20%; mice killed by etoposide (athymic (Nude-nu) mice; nude mice): 56%; weight change after etoposide (athymic (Nude-nu) mice; nude mice): lost weight; mice killed by etoposide (CD1 mice): all; excreted within 48 hours [4]: up to 90%
2 | C[C@@H](O)[C@@H]1NC(=O)[C@H](CCCCN)NC(=O)[C@@H](Cc2c[nH]c3ccccc23)NC(=O)[C@H](Cc2ccccc2)NC(=O)[C@@H](NC(=O)[C@H](N)Cc2ccccc2)CSSC[C@@H](C(=O)N[C@H](CO)[C@@H](C)O)NC1=O [OCT, octreotide] | 31 to 37 days | 8/8 | 2/8 | 8/8 | 8/8 | 8/8 | 31 to 37 days | 8/8 | 0/8 | 33 days | 2/8 | 8/8 | 8/8 | 8/8 | Median survival (NXS2 neuroblastoma cells [1]; Table 1): 33 days; protection against NXS2-dependent death (NXS2 neuroblastoma cells [1]; octreotide alone, absence of short-term starvation): did not protect; protection of mice against the superoxide generator paraquat (mice): sufficient to protect; protection against etoposide toxicity (A/J mice [3]; octreotide alone, mice): not sufficient to protect; mice that died (athymic (Nude-nu) mice; octreotide co-treatment and/or 48-hour starvation): all; sensitization of NXS2 cells to etoposide treatment (NXS2 neuroblastoma cells [5]): did not sensitize
3 | COc1cccc2c1C(=O)c1c(O)c3c(c(O)c1C2=O)C[C@@](O)(C(=O)CO)C[C@@H]3O[C@H]1C[C@H](N)[C@H](O)[C@H](C)O1 [doxorubicin] |  |  |  |  |  |  |  |  |  |  |  |  |  |  | survival (LID mice [6]; LID mice): All LID mice survived; mice that died (LID mice [6]; control mice): 75%; survival (A/J mice [7]; 16 mg/Kg doxorubicin i.v. after 48-hour STS (n=5)): protected all mice; lethality (A/J mice [7]; 16 mg/Kg doxorubicin i.v., mice not pre-starved): killed all the mice
